Results: US20050043245A1, “Non-mammalian GnRH analogs and uses thereof in the immune system” (priority 2003, published 2005)
Square brackets hold non-standard residues; d marks the D form. Ends that are not written are not given here. Peptide text beside a SMILES is read from it. pGlu = O=C1CC[C@@H](C(=O)O)N1; azaGly = NNC(=O)O

Columns and labels:
human leukocytes = assay: Cytokine release from cultured human leukocytes; type: cell-based; details: for effect on IL-4 production / effect on IL-8 production / effect on IL-10 production / effect on Interferon γ (INFγ) production: 2×10^−9 to 2×10^−7 M at 1, 3 and 20 hours; for activity on immune systems cytokines: compared among GnRH forms, varying doses
Protocol: Tissues of the immune system have been examined for the ability of their cells in vitro to respond to GnRH II (SEQ ID NO: 6) in culture medium. The media from cell cultures of immune system tissues have been examined for the release of cytokine into the medium after incubation with and without GnRH II analog (SEQ ID NO: 2).
Cell cultures of human leukocytes tissues have been prepared. […] The release of cytokines into the medium have been determined and compared for each form of GnRH studied.
We studied the effect of cytokines primarily produced by T cells. […] Concentrations of 2×10^−9 to 2×10^−7 M at 1, 3 and 20 hours were studied.
We have also studied cytokine produced primarily by B cells and macrophages. […] This is consistent with opposing activities followed by downregulation of the receptors with chronic high concentrations of the ligand.
Using our GnRH II analog (SEQ ID NO: 2) an inhibition of GM-CSF was clearly apparent after 20 hours of exposure.

human placental explants = details: in vitro; cited from earlier work
T cells = details: effects only seen after twenty-four hours; cited from earlier work
[1] = target: T1, human pituitary GnRH receptor (Homo sapiens, UniProt P30968); details: cited from earlier work
T1 sequence (P30968 1-328): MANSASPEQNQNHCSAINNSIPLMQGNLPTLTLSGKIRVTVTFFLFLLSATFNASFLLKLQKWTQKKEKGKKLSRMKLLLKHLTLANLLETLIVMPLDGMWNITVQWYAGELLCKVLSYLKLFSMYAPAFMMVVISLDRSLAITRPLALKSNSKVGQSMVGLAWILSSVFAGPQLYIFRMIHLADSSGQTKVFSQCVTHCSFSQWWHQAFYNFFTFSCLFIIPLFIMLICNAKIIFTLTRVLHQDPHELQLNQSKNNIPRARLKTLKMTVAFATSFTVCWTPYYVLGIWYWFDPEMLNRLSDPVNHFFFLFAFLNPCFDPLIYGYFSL

placental GnRH receptor = details: cited from earlier work
rhesus monkeys = details: chronic administration, long-acting; cited from earlier work
[2] = Whole blood, plasma and serum stability of GnRH II analog; type: in vitro ADME
Protocol: FIG. 2 is a graph showing stability of GnRH II analog in blood and plasma. GnRH II Analog is stable throughout twenty-four hour of incubation in plasma and for the seventeen hours in serum following the initial serum formation.
The enzymatic degradation of the non-mammalian GnRH (SEQ ID NO: 6) and its analog (SEQ ID NO: 2) were studied using whole blood and plasma stability studies. A peptidase present in the immune system was used. Non-mammalian GnRH analogs (SEQ ID NO: 2) were designed with these specific criteria in mind. The stability of these non-mammalian GnRH analogs (SEQ ID NO: 2) to the enzymatic activity of the peptidase and in immune system cells were examined.
Each of these analogs was then studied for their ability to resist degradation over time of incubation with the immune system cells at 37° C. The reaction was stopped by freezing and the remaining GnRH I substrate, GnRH II substrate or non-mammalian analog was directly quantified by radioimmunoassay.
Studies using whole immune system cells were also performed. […] FIG. 2 is a graph showing stability of GnRH II in blood and plasma.

immune system receptor = assay: Immune system GnRH receptor binding; parameters: species or system human
Description: The receptor binding activity of non-mammalian GnRH (SEQ ID NO: 6 and SEQ ID NO: 7) and non-mammalian GnRH analogs (SEQ ID NO: 2 and SEQ ID NO: 4) of the present invention will be compared. There is a human non-mammalian GnRH receptor which is distinct from the GnRH I receptor at the pituitary. […] They have also been designed to limit degradation by the immune system enzymes, present in lymphatic circulation. Binding activity of the newly synthesized non-mammalian GnRH analogs (SEQ ID NO: 2 and SEQ ID NO: 4) has been studied in plasma.
The newly synthesized non-mammalian GnRH analogs (SEQ ID NO: 2 and SEQ ID NO: 4) and other commercially available analogs have been used in receptor binding studies in plasma and enzyme stability study described here. On the basis of these studies, the most receptor potent and most enzyme-stable analogs have been chosen for further biopotency studies. GnRH receptors have been purified from the fractions from immune system tissues. The purification procedure for the GnRH receptor utilized ethanol precipatation of the receptor and not the GnRH. The remaining non-mammalian GnRH binding assays activity using ^125I-D-Arg-GnRH II-Aza-Gly-2^125 label and GnRH II have been performed. Receptors from two different tissues from the same type of immune system cells have been used to study each of these analogs. […]

[3] = after one hour of treatment, still observed at 3 and 20 hours

| Molecule | effect on IL-4 production (human leukocytes) | effect on IL-8 production (human leukocytes) | effect on IL-10 production (human leukocytes) | effect on Interferon γ (INFγ) production (human leukocytes) | effect on Interleukin 12 (IL-12) (human leukocytes; [3]) | activity on immune systems cytokines (human leukocytes) | affinity for the human pituitary GnRH receptor [1] | affinity for the placental GnRH receptor (placental GnRH receptor) | affinity for the immune system receptor relative to GnRH I (immune system receptor) | also measured |
| --- | --- | --- | --- | --- | --- | --- | --- | --- | --- | --- |
| CCNC(=O)[C@@H]1CCCN1C(=O)[C@H](CCCNC(=N)N)NC(=O)[C@H](CC(C)C)NC(=O)[C@@H](COC(C)(C)C)NC(=O)[C@H](Cc1ccc(O)cc1)NC(=O)[C@H](CO)NC(=O)[C@H](Cc1c[nH]c2ccccc12)NC(=O)[C@H](Cc1cnc[nH]1)NC(=O)[C@@H]1CCC(=O)N1 [Buserelin] | no effects | no effects | no effects | no effects | inhibited |  |  |  |  |  |
| [N-Ac-Pro,D-p-Cl-Phe,D-Nal(2)]-GnRH I |  |  |  |  |  |  |  |  |  | hCG production/release (human placental explants): inhibition; placental prostanoids / basal prostaglandin production (human placental explants): inhibited; progesterone production (human placental explants): dramatically suppressed |
| GnRH II: chicken II GnRH, natural non-mammalian GnRH isoform ([pGlu]HWSHGWYPG; ends and bridges not checked; listed as Gallus gallus) | no effects | no effects | no effects | no effects |  | greater activity | lesser affinity | higher affinity |  | effect on Interleukin 12 (IL-12) (human leukocytes; at 3 hours): inhibition; effect on GM-CSF release (human leukocytes; high dose, 3 hrs): inhibits; effect on GM-CSF release (human leukocytes; low dose, 3 hrs): potent stimulant; T cells adhesion and homing (T cells): stimulates; contraceptive effect (rhesus monkeys): effective contraceptive agent |
| N=C(N)NCCC[C@@H](NC(=O)[C@H](Cc1c[nH]cn1)NC(=O)[C@H](CO)NC(=O)[C@H](Cc1c[nH]c2ccccc12)NC(=O)[C@H](Cc1c[nH]cn1)NC(=O)[C@@H]1CCC(=O)N1)C(=O)N[C@@H](Cc1c[nH]c2ccccc12)C(=O)N[C@@H](Cc1ccc(O)cc1)C(=O)N1CCC[C@H]1C(=O)NNC(N)=O [GnRH II analog, D-Arg-GnRH II-aza-Gly-amide] ([pGlu]HWSH[dR]WYP[azaGly]-NH2) | no effects | no effects | no effects | no effects | inhibited | most active |  |  | greater affinity | effect on GM-CSF release (human leukocytes; 20 hours): inhibition; stability in serum ([2]; seventeen hours in serum following the initial serum formation): stable; stability in plasma ([2]; throughout twenty-four hour of incubation in plasma): stable |
| salmon GnRH: natural non-mammalian GnRH isoform of salmon ([pGlu]HWSYGWLPG; ends and bridges not checked) |  |  |  |  |  |  | lesser affinity | higher affinity |  |  |
| salmon GnRH analog: salmon GnRH sequence modified at the 6 position using D-Arg and at the 10 position (ethylamide or aza-Gly^10-NH2) |  |  |  |  |  |  |  |  | greater affinity |  |
